Legend:
[1] = molecular target: Neuronal acetylcholine receptor; alpha4/beta2 (Rattus norvegicus, UniProt P09483+P12390); assay: (§1) Displacement of [3H]cytisine from alpha4beta2 nAChR in rat brain membrane after 3 hrs; type: cell membranes
[2] = molecular target: Neuronal acetylcholine receptor; alpha4/beta2 (Rattus norvegicus) (UniProt P09483+P12390); assay: as §1; type: cell membranes
[3] = molecular target: Neuronal acetylcholine receptor subunit alpha-7 (Rattus norvegicus) (UniProt Q05941); settings: Brain, Membrane
Sequence of Neuronal acetylcholine receptor subunit alpha-7 (Rattus norvegicus) (Q05941 whole entry): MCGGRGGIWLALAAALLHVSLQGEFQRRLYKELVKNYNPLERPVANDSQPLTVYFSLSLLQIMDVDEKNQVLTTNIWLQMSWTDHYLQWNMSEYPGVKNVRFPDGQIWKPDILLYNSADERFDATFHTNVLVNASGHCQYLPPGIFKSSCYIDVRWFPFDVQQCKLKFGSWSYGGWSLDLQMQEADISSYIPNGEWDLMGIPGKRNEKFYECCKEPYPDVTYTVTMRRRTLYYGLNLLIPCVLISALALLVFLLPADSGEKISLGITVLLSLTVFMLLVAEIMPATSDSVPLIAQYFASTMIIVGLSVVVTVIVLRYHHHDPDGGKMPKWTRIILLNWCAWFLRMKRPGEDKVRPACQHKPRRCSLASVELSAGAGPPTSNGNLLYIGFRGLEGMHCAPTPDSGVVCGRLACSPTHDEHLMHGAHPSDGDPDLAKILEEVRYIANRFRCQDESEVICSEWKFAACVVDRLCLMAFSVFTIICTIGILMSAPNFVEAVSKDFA
Description: (§2) Displacement of [125I]-alpha-bungarotoxin from alpha7 nAChR in rat brain membrane after 3 hrs

[4] = molecular target: Neuronal acetylcholine receptor subunit alpha-7 (Rattus norvegicus, UniProt Q05941); type: cell membranes, Brain, Membrane
Sequence of Neuronal acetylcholine receptor subunit alpha-7 (Q05941 whole entry): as above
Description: as §2

Sequence of Neuronal acetylcholine receptor; alpha4/beta2 (P09483 whole entry): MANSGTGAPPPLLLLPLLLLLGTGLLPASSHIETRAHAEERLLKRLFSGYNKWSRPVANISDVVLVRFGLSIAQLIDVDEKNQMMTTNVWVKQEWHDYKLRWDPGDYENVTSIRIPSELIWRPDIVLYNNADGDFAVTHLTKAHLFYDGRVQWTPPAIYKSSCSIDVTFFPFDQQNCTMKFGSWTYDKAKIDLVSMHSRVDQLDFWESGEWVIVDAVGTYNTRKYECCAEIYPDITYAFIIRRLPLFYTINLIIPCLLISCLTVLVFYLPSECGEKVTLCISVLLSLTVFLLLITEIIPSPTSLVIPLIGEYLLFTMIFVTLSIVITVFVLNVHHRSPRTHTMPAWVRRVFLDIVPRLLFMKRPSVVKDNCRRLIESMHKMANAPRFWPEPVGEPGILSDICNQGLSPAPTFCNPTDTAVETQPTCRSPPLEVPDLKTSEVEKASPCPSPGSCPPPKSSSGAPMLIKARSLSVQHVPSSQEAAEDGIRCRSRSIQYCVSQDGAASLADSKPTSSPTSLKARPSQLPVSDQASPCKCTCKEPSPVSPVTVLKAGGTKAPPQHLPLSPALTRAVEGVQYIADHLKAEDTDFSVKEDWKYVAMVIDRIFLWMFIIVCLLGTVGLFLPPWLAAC
Sequence of Neuronal acetylcholine receptor; alpha4/beta2 (P12390 whole entry): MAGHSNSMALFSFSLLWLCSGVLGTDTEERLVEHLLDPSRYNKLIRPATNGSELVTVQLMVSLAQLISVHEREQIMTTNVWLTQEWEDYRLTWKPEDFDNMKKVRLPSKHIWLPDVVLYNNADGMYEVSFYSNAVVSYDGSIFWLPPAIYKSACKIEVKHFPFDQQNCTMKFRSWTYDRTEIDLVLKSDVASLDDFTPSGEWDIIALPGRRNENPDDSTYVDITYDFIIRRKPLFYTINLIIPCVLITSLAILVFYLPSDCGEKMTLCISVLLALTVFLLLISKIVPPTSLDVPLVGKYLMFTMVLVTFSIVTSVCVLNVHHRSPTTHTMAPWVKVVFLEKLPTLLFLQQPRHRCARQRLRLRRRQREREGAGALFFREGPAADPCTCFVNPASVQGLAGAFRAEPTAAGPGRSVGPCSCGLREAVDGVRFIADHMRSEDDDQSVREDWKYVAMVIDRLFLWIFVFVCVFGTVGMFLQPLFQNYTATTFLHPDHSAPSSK

SMILES	Ki [1] [µM]	Ki [2] [µM]	Ki [3] [µM]	Ki [4] [µM]
OCCN(CCO)c1ccc(/C=C2\CCCN=C2c2cccnc2)cc1	0.16	0.796	0.721	0.19
FC(F)Oc1ccccc1/C=C1\CCCN=C1c1cccnc1	1.41	–	–	–
Cc1ccc(/C=C2\CCCN=C2c2cccnc2)cc1	0.99	0.004	0.361	0.436
C(=C1/CCCN=C1c1cccnc1)/c1cc2ccccc2o1	–	0.772	0.823	–
CCC(CC)Oc1cc(OC)ccc1/C=C1\CCCN=C1c1cccnc1	0.43	0.367	1.3	0.05
CC(=O)c1ccc(/C=C2\CCCN=C2c2cccnc2)cc1	4.49	–	–	–
CCCCOc1ccc(/C=C2\CCCN=C2c2cccnc2)cc1	1.96	–	–	–
Oc1ccc(/C=C2\CCCN=C2c2cccnc2)c(O)c1	0.21	0.678	0.699	0.2
COc1ccc(/C=C2\CCCN=C2c2cccnc2)cc1	0.49	0.31	0.244	0.57
Clc1ccc(/C=C2\CCCN=C2c2cccnc2)cc1	0.97	0.013	0.049	1.12
Cc1cc(O)cc(C)c1/C=C1\CCCN=C1c1cccnc1	0.67	0.174	0.74	5.49
COc1ccc(/C=C2\CCCN=C2c2cccnc2)c(OC)c1 [GTS-21]	0.25	0.602	0.886	0.13
CNc1ccc(/C=C2\CCCN=C2c2cccnc2)cc1	0.05	1.3	1.3	0.05
Nc1ccc(/C=C2\CCCN=C2c2cccnc2)cc1	0.12	0.921	1.3	0.05
C(=C1/CCCN=C1c1cccnc1)/c1ccc(N2CCOCC2)cc1	0.28	0.553	0.523	0.3
C(=C1/CCCN=C1c1cccnc1)/c1ccc2c(c1)OCO2	–	0.155	0.638	–
COc1cc(/C=C2\CCCN=C2c2cccnc2)cc(OC)c1OC	4.67	0.669	0.542	3.48
FC(F)(F)Oc1ccccc1/C=C1\CCCN=C1c1cccnc1	1.76	0.246	–	–
N#Cc1ccc(/C=C2\CCCN=C2c2cccnc2)cc1	1.23	0.09	0.362	2.3
C(=C1/CCCN=C1c1cccnc1)/c1ccc2c(c1)OCCO2	–	0.284	0.699	–
CC(C)(C)Oc1ccc(/C=C2\CCCN=C2c2cccnc2)cc1	2.17	0.336	0.348	2.23
COc1ccc2cc(/C=C3\CCCN=C3c3cccnc3)ccc2c1	–	0.222	0.432	–

SMILES	Ki [1] [µM]	Ki [2] [µM]	Ki [3] [µM]	Ki [4] [µM]
CSc1ccc(/C=C2\CCCN=C2c2cccnc2)cc1	0.9	0.046	0.602	0.25
C(=C1/CCCN=C1c1cccnc1)/c1ccc(-n2ccnn2)cc1	–	0.284	0.072	–
CN(C)c1ccc(/C=C2\CCCN=C2c2cccnc2)cc1	0.17	0.77	1.1	0.08
COc1ccc(/C=C2\CCCN=C2c2cccnc2)c(OC(C)=O)c1	0.77	0.114	0.523	0.3
CC(C)(C)C(=O)Oc1ccccc1/C=C1\CCCN=C1c1cccnc1	1.44	0.158	0.187	0.65
CC(C)(C)C(=O)Oc1ccc(/C=C2\CCCN=C2c2cccnc2)cc1	0.83	0.081	0.161	0.69
CCCc1ccc(/C=C2\CCCN=C2c2cccnc2)cc1	0.89	0.051	0.553	0.28
COc1ccc(/C=C2\CCCN=C2c2cccnc2)c(OC(C)C)c1	0.17	0.77	1.16	0.07
COc1cc(OC)c(/C=C2\CCCN=C2c2cccnc2)c(OC)c1	0.06	1.22	0.745	0.18
COc1cccc(/C=C2\CCCN=C2c2cccnc2)c1	1.18	0.072	0.337	0.46
Cc1cc(/C=C2\CCCN=C2c2cccnc2)cc(C)c1O	0.36	0.444	0.276	0.53
CCN(CC)c1ccc(/C=C2\CCCN=C2c2cccnc2)c(O)c1	0.13	0.886	1.3	0.05
FC(F)(F)Oc1ccc(/C=C2\CCCN=C2c2cccnc2)cc1	0.93	–	–	–
COc1ccc(/C=C2\CCCN=C2c2cccnc2)c(O)c1	0.39	0.409	0.495	0.32
FC(F)Oc1ccc(/C=C2\CCCN=C2c2cccnc2)cc1	1.16	0.064	0.004	1.01
Oc1cccc(/C=C2\CCCN=C2c2cccnc2)c1	1.17	0.068	0.824	0.15
CC(=O)Oc1ccccc1/C=C1\CCCN=C1c1cccnc1	0.7	0.155	0.244	0.57
C(=C1/CCCN=C1c1cccnc1)/c1ccccc1 [3-BENZYLIDENEANABASEINE]	0.85	0.071	0.222	0.6
CC(=O)Oc1ccc(/C=C2\CCCN=C2c2cccnc2)cc1	0.25	0.602	0.77	0.17
Oc1ccc(/C=C2\CCCN=C2c2cccnc2)cc1	0.45	0.347	0.444	0.36
Cc1cc(C)c(/C=C2\CCCN=C2c2cccnc2)c(C)c1	0.52	0.284	0.179	1.51
CC(=O)Nc1ccc(/C=C2\CCCN=C2c2cccnc2)cc1	0.38	0.42	0.62	0.24

Source: ChEMBL document CHEMBL1165900, “A computational study of the binding of 3-(arylidene) anabaseines to two major brain nicotinic acetylcholine receptors and to the acetylcholine binding protein” (Eur J Med Chem, 2010)
